Data taken from US9131691B2, “Use of amide compounds for preventing marine biofouling” (The Hong Kong University of Science and Technology, priority 2011, dated 2015).
≈ marks a conversion by molar mass, not a printed value. Like-named read-outs stand apart in the source and are kept apart here.

Experiments:
Type in all cases: in vivo
in vivo = settings: Balanus amphitrite (barnacle) cyprid larvae, in vivo, B. amphitrite cyprids, 48 h, concentration where 50% of larvae dead
Method: (§1) They were kept in sea water at room temperature in lab under light illumination to induce the release of nauplii larvae. These newly released nauplii were reared to the cyprid stage on a diet of Chaetoceros gracilis Schutt at 28° C. for about 3 days until they developed into cyprids, which were ready to settle. The cyprids were collected using a 120 μm mesh sieve. Each sample of the exacts was dissolved in a small amount of DMSO and then transferred into filtered seawater to make up the test solution with a known concentration. About fifteen (15±3) cyprids per well were incubated in the dark for 48 h in a 24-well plate filled with 1 ml testing solutions per well. The numbers of the settled and swimming larvae were counted under a dissecting microscope. Three replicates were run for each sample. […] The experiment was performed in quadruplicate.
as §1, with “Each compound” for “Each”, “sample” for “sample of the exacts”

B. amphitrite cyprids = experiment: whole plant or invertebrate; settings: for EC50: Amphibalanus amphitrite, 48 h, read-out: EC50 (larval settlement); for LC50/EC50: B. amphitrite, ratio >10 regarded as non-toxic
Method: as §1
as §1, with “Each compound” for “Each”, “sample” for “sample of the exacts”

[1] = inhibition of larvae settlement of H. elegans; settings: Hydroides elegans (polychaete tubeworm) larvae, in vivo, H. elegans larvae, 48 h
Method: (§2) The four amide compounds were tested for their abilities to inhibit larvae settlement of the H. elegans, using an experimental model of inhibition of larvae settlement H. elegans (Zhang Y., Xiao K., Qian P. Y., et al. 2D gel-based multiplexed proteomic analysis during larval development and metamorphosis of the biofouling polychaete tubeworm Hydroides elegans. Journal of proteome research. 2010, 9(9), 4851-4860). Adults of H. elegans were collected from Yung Shue O, Hong Kong (22° 25′N, 114° 16′E). The H. elegans larvae were reared according to Qian and Pechenik (Bryan P. J., Qian P. Y., Kreider J. L.; Chia F. S. Induction of larval settlement and metamorphosis by pharmacological and conspecific associated compounds in the serpulid polychaete Hydroides elegans. Marine ecology progress series. 1997, 146: 81-90; Qiu, J. W.; Qian, P. Y. Combined effects of salinity, temperature and food on early development of the polychaete Hydroides elegans. Marine ecology progress series. 1997, 152: 79-88). Briefly, they were reared for 4 days until they reach the settlement-competent stage on a diet of chrysophyte Isochrysis galbana under an aerated condition and a 15 h light/9 h dark photoperied at 25° C. Because the attachment of H. elegans larvae requires to be induced by marine biofilm (Carpizo-Ituarte and Hadfield 1998), 24-well plates were suspended in laboratory tanks supplied with running seawater for 6 days until each well of every plate had accumulated sufficient biofilm. About fifteen (15±3) competent larvae were added to each biofilmed well of a plate containing 1.0 mL test solution containing samples at known concentrations. The 24-well plates were incubated at 28° C. for 48 h under a 15 h light/9 h dark photoperied. The percentage of larvae settlement and larvae mortality was determined by counting the settled, live individuals under a dissecting microscope. Three replicates were run for each sample. The EC50 was calculated as the concentration where 50% of the larval population was inhibited to settle as compared to the control, while LC50 was calculated as the concentration where 50% of the larval population was dead. The experiment was performed in quadruplicate. The experiment results of the inhibitory effect of the four Compounds 1-4 on larvae settlement of H. elegans were shown in FIGS. 3, 6, 9, and 12, respectively.

H. elegans larvae = experiment: inhibition of larvae settlement of H. elegans; settings: for LC50/EC50: H. elegans, ratio >10 regarded as non-toxic; for EC50: Hydroides elegans, read-out: EC50 (larval settlement)
Method: as §2

[2] = inhibition of larvae settlement of B. neritina; settings: Bugula neritina (bryozoan) larvae, in vivo, B. neritina larvae, 24 h
Method: (§3) Adult B. neritina colonies were placed in a 12 L tank filled with 8 L filtered seawater under a bright artificial light for 1 h to induce the release of their photo-tactic larvae that were able to shortly attach and metamorphose. The actively swimming larvae were collected and added to the test solutions contain different concentrations of samples in 24-well plates at about fifteen (15±3) larvae per well. They were then incubated in the dark at room temperature for 24 h before counting the number of attached and unattached larvae under a dissecting microscope. […] The experiment was performed in quadruplicate.

B. neritina larvae = experiment: inhibition of larvae settlement of B. neritina; settings: for LC50/EC50: B. neritina, ratio >10 regarded as non-toxic; for EC50: Bugula neritina, read-out: EC50 (larval settlement)
Method: as §3

[3] = other: immersion in test solution
[4] = B. amphitrite cyprids, concentration where 50% of larvae inhibited to settle vs control
[5] = 48 h, H. elegans larvae, biofilmed wells, 48 h

Row | Structure (SMILES) | LC50 at 48 h (in vivo; [3]) [µg/mL] | EC50 (B. amphitrite cyprids; [4]) [µg/mL] | LC50/EC50 (B. amphitrite cyprids) | LC50 at 48 h [1, 3] [µg/mL] | LC50/EC50 (H. elegans larvae) | EC50 (H. elegans larvae; [5]) [µg/mL] | LC50 at 24 h [2, 3] [µg/mL] | EC50 (larval settlement) (B. neritina larvae; B. neritina larvae, 24 h) [µg/mL] | LC50/EC50 (B. neritina larvae) | LC50 at 48 h (in vivo) [µg/mL] | LC50 at 48 h [1] [µg/mL] | LC50 at 24 h [2] [µg/mL] | EC50 (B. neritina larvae; 24 h, B. neritina larvae, 24 h) [µg/mL] | EC50 (B. amphitrite cyprids) [µg/mL] | EC50 (larval settlement) (H. elegans larvae; H. elegans larvae, biofilmed wells, 48 h) [µg/mL] | EC50 (H. elegans larvae; 48 h) [µg/mL] | EC50 (B. neritina larvae; 24 h) [µg/mL]
1 | O=C(CCCCCC/C=C/c1ccc2c(c1)OCO2)N1CCCCC1 [Compound 1, 1-[1-oxo-9-(3′,4′-methylenedioxyphenyl)-8E-nonenyl]-piperine] | > 100 | 1.1 ± 0.3 (≈ 3.2 µM) | >86.9 | > 50 | >49.5 | 1 ± 0.4 (≈ 2.91 µM) | > 10 | 0.7 ± 0.2 (≈ 2.04 µM) | >14.7 | – | – | – | – | – | – | – | –
2 | O=C(/C=C/C=C/c1ccc2c(c1)OCO2)N1CCCCC1 [Compound 2, 1-[1-oxo-5-(3′,4′-methylenedioxyphenyl)-2,4-pentadienoyl]-piperidine] | – | 1.4 ± 0.6 (≈ 4.91 µM) | >71.4 | – | >38.5 | 1.3 ± 0.8 (≈ 4.56 µM) | – | – | >30.3 | > 100 | > 50 | > 50 | 1.6 ± 0.7 (≈ 5.61 µM) | – | – | – | –
3 | O=C(/C=C/C=C/CCc1ccc2c(c1)OCO2)N1CCCCC1 [Compound 3, 1-[1-oxo-7-(3′,4′-methylenedioxyphenyl)-2E,4E-heptadienyl]-piperine] | > 100 | 4.2 ± 1.3 (≈ 13.4 µM) | >24.0 | > 100 | >13.7 | 7.3 ± 1.6 (≈ 23.3 µM) | > 100 | – | >11.7 | – | – | – | 8.5 ± 2.1 (≈ 27.1 µM) | – | – | – | –
4 | CC(C)CNC(=O)/C=C/C=C/CCCCCC/C=C/c1ccc2c(c1)OCO2 [Compound 4, (2E,4E,12E)-N-isobutyl-13-(3′,4′-methylenedioxyphenyl)-tridecatrienamide] | – | – | >12.1 | – | – | – | – | – | >17.6 | > 200 | > 100 | > 100 | – | 16.6 ± 2.9 (≈ 43.3 µM) | >20.0 | > 20 | 5.7 ± 1.5 (≈ 14.9 µM)
